Reference: US12545639B2, “3-substituted phenylamidine compounds, preparation and use thereof” (PI INDUSTRIES LTD., priority 2019, dated 2026)

Legend:
Format in all cases: cell-based
[1] = system: Pyricularia oryzae; experiment: microbe, parasite or virus in culture; settings: 168 h, read-out: control compared to the untreated check (radial growth)
[2] = system: Alternaria solani; experiment: Alternaria solani (early blight of tomato/potato) in vitro test, radial growth on potato dextrose agar; settings: 168 h, 300 ppm in potato dextrose agar, 25° C., 60% relative humidity, seven days, read-out: control compared to the untreated check (radial growth)
[3] = system: Rhizoctonia solani; experiment: Rhizoctonia solani (rice sheath blight/potato black scurf) in vitro test, radial growth on potato dextrose agar; settings: 168 h, 300 ppm in potato dextrose agar, 25° C., 60% relative humidity, seven days, read-out: control compared to the untreated check (radial growth)

| SMILES | inhibition of growth at 300 ppm [1] | inhibition of growth at 300 ppm [2] | inhibition of growth at 300 ppm [3] |
| --- | --- | --- | --- |
| CCN(C)C=Nc1cc(Cl)cc(N(C)c2cccc(C(F)(F)F)n2)c1C [Compound 289, N′-(5-chloro-2-methyl-3-(methyl(6-(trifluoromethyl)pyridin-2-yl)amino)phenyl)-N-ethyl-N-methylformimidamide] | ≥ 70% | ≥ 70% | – |
| CCN(C)C=Nc1cc(Cl)cc(Cc2cccnc2)c1C [Compound 248, N′-(5-chloro-2-methyl-3-(pyridin-3-ylmethyl)phenyl)-N-ethyl-N-methylformimidamide] | ≥ 70% | – | – |
| CCN(C)C=Nc1cc(C)cc(Nc2ccc3c(c2)OCCO3)c1Cl [Compound 169, N′-(2-chloro-3-((2,3-dihydrobenzo[b][1,4]dioxin-6-yl)amino)-5-methylphenyl)-N-ethyl-N-methylformimidamide] | ≥ 70% | ≥ 70% | ≥ 70% |
| CCN(C)C=Nc1cc(C)cc(N(C)c2ncccc2C)c1Cl [Compound 108, N′-(2-chloro-5-methyl-3-(methyl(3-methylpyridin-2-yl)amino)phenyl)-N-ethyl-N-methylformimidamide] | ≥ 70% | ≥ 70% | – |
| CCN(C)C=Nc1cc(F)cc(Cc2ccccc2C#N)c1C [Compound 168, N′-(3-(2-cyanobenzyl)-5-fluoro-2-methylphenyl)-N-ethyl-N-methylformimidamide] | ≥ 70% | ≥ 70% | ≥ 70% |
| CCN(C)C=Nc1cc(F)cc(Cc2cccnc2)c1C [Compound 260, N-ethyl-N′-(5-fluoro-2-methyl-3-(pyridin-3-ylmethyl)phenyl)-N-methylformimidamide] | – | ≥ 70% | ≥ 70% |
| CCN(C)C=Nc1cc(C)cc(N(C)c2cccc(C(F)(F)F)n2)c1Cl [Compound 290, N′-(2-chloro-5-methyl-3-(methyl(6-(trifluoromethyl)pyridin-2-yl)amino)phenyl)-N-ethyl-N-methylformimidamide] | ≥ 70% | ≥ 70% | – |
| CCN(C)C=Nc1cc(C)cc(N(C)c2cc(F)cc(F)c2)c1Cl [Compound 74, N′-(2-chloro-3-((3,5-difluorophenyl)(methyl)amino)-5-methylphenyl)-N-ethyl-N-methylformimidamide] | – | ≥ 70% | – |
| CCN(C)C=Nc1cc(C#N)cc(Cc2cccc(Br)c2)c1C [Compound 313, N′-(3-(3-bromobenzyl)-5-cyano-2-methylphenyl)-N-ethyl-N-methylformimidamide] | ≥ 70% | – | – |
| CCN(C)C=Nc1cc(C)cc(Nc2cc(F)cc(Cl)c2)c1Cl [Compound 97, N′-(2-chloro-3-((3-chloro-5-fluorophenyl)amino)-5-methylphenyl)-N-ethyl-N-methylformimidamide] | ≥ 70% | – | – |
| CCN(C)C=Nc1cc(Cl)cc(Cc2cccc(C#N)c2)c1C [Compound 250, N′-(5-chloro-3-(3-cyanobenzyl)-2-methylphenyl)-N-ethyl-N-methylformimidamide] | ≥ 70% | – | – |
| CCN(C)C=Nc1cc(C)cc(N(C)c2ccc3ncsc3c2)c1Cl [Compound 240, N′-(3-(benzo[d]thiazol-6-yl(methyl)amino)-2-chloro-5-methylphenyl)-N-ethyl-N-methylformimidamide] | ≥ 70% | ≥ 70% | – |
| CCN(C)C=Nc1cc(C)cc(N(C)c2ccc(F)cc2F)c1Cl [Compound 82, N′-(2-chloro-3-((2,4-difluorophenyl)(methyl)amino)-5-methylphenyl)-N-ethyl-N-methylformimidamide] | ≥ 70% | ≥ 70% | ≥ 70% |
| CCN(C)C=Nc1cc(Cl)cc(Cc2ccc(C(F)(F)F)cc2)c1C [Compound 249, N′-(5-chloro-2-methyl-3-(4-(trifluoromethyl)benzyl)phenyl)-N-ethyl-N-methylformimidamide] | ≥ 70% | – | – |
| CCN(C)C=Nc1cc(C)cc(Nc2ccc3ncsc3c2)c1Cl [Compound 228, N′-(3-(benzo[d]thiazol-6-ylamino)-2-chloro-5-methylphenyl)-N-ethyl-N-methylformimidamide] | ≥ 70% | ≥ 70% | – |
| CCN(C)C=Nc1cc(C)cc(N(C)c2cccc(OC)c2)c1Cl [Compound 49, N′-(2-chloro-3-((3-methoxyphenyl)(methyl)amino)-5-methylphenyl)-N-ethyl-N-methylformimidamide] | ≥ 70% | ≥ 70% | – |
| CCN(C)C=Nc1cc(Cl)cc(Nc2cccc(C)c2)c1C [Compound 154, N′-(5-chloro-2-methyl-3-(m-tolylamino)phenyl)-N-ethyl-N-methylformimidamide] | ≥ 70% | ≥ 70% | ≥ 70% |
| CCN(C)C=Nc1cc(Cl)cc(Cc2cccc(OC(F)(F)F)c2)c1C [Compound 251, N′-(5-chloro-2-methyl-3-(3-(trifluoromethoxy)benzyl)phenyl)-N-ethyl-N-methylformimidamide] | ≥ 70% | – | – |

| SMILES | inhibition of growth at 300 ppm [1] | inhibition of growth at 300 ppm [2] | inhibition of growth at 300 ppm [3] |
| --- | --- | --- | --- |
| CCN(C)C=Nc1cc(OC)cc(Cc2cccc(C#N)c2)c1C [Compound 306, N′-(3-(3-cyanobenzyl)-5-methoxy-2-methylphenyl)-N-ethyl-N-methylformimidamide] | ≥ 70% | ≥ 70% | ≥ 70% |
| CCN(C)C=Nc1cc(C)cc(Cc2ccccc2C#N)c1Cl [Compound 47, N′-(2-chloro-3-(2-cyanobenzyl)-5-methylphenyl)-N-ethyl-N-methylformimidamide] | ≥ 70% | ≥ 70% | – |
| CCN(C)C=Nc1cc(Cl)cc(N(C)c2ccc(OC)c(F)c2)c1C [Compound 267, N′-(5-chloro-3-((3-fluoro-4-methoxyphenyl)(methyl)amino)-2-methylphenyl)-N-ethyl-N-methylformimidamide] | ≥ 70% | – | – |
| CCc1cccc(Nc2cc(F)cc(N=CN(C)CC)c2C)n1 [Compound 227, N-ethyl-N′-(3-((6-ethylpyridin-2-yl)amino)-5-fluoro-2-methylphenyl)-N-methylformimidamide] | – | ≥ 70% | – |
| CCN(C)C=Nc1cc(C)cc(Nc2ccccc2OC(F)F)c1Cl [Compound 177, N′-(2-chloro-3-((2-(difluoromethoxy)phenyl)amino)-5-methylphenyl)-N-ethyl-N-methylformimidamide] | ≥ 70% | ≥ 70% | ≥ 70% |
| CCN(C)C=Nc1cc(Cl)cc(N(C)c2ccc(OC)cc2)c1C [Compound 167, N′-(5-chloro-3-((4-methoxyphenyl)(methyl)amino)-2-methylphenyl)-N-ethyl-N-methylformimidamide] | ≥ 70% | ≥ 70% | ≥ 70% |
| CCN(C)C=Nc1cc(OC)cc(Nc2ccccc2OC)c1C [Compound 268, N-ethyl-N′-(5-methoxy-3-((2-methoxyphenyl)amino)-2-methylphenyl)-N-methylformimidamide] | – | ≥ 70% | – |
| CCN(C)C=Nc1cc(F)cc(C(=O)COc2ccc(OC)cc2Cl)c1C [Compound 304, N′-(3-(2-(2-chloro-4-methoxyphenoxy)acetyl)-5-fluoro-2-methylphenyl)-N-ethyl-N-methylformimidamide] | ≥ 70% | ≥ 70% | – |
| CCN(C)C=Nc1cc(F)cc(Cc2ccc(SC)cc2)c1C [Compound 241, N-ethyl-N′-(5-fluoro-2-methyl-3-(4-(methylthio)benzyl)phenyl)-N-methylformimidamide] | ≥ 70% | ≥ 70% | ≥ 70% |
| CCN(C)C=Nc1cc(Cl)cc(Cc2ccc(SC)cc2)c1C [Compound 252, N′-(5-chloro-2-methyl-3-(4-(methylthio)benzyl)phenyl)-N-ethyl-N-methylformimidamide] | ≥ 70% | – | – |
| CCN(C)C=Nc1cc(OC)cc(Nc2ccc(OC)c(F)c2)c1C [Compound 269, N-ethyl-N′-(3-((3-fluoro-4-methoxyphenyl)amino)-5-methoxy-2-methylphenyl)-N-methylformimidamide] | – | ≥ 70% | – |
| CCN(C)C=Nc1cc(C)cc(N(C)c2ccccn2)c1Cl [Compound 107, N′-(2-chloro-5-methyl-3-(methyl(pyridin-2-yl)amino)phenyl)-N-ethyl-N-methylformimidamide] | ≥ 70% | – | – |
| CCN(C)C=Nc1cc(C)cc(Nc2cc(F)cc(F)c2)c1Cl [Compound 78, N′-(2-chloro-3-((3,5-difluorophenyl)amino)-5-methylphenyl)-N-ethyl-N-methylformimidamide] | ≥ 70% | ≥ 70% | – |
| CCN(C)C=Nc1cc(F)cc(N(C)c2ccc3ncsc3c2)c1C [Compound 238, N′-(3-(benzo[d]thiazol-6-yl(methyl)amino)-5-fluoro-2-methylphenyl)-N-ethyl-N-methylformimidamide] | ≥ 70% | ≥ 70% | – |
| CCN(C)C=Nc1cc(C)cc(Nc2ncccc2C(F)(F)F)c1Cl [Compound 135, N′-(2-chloro-5-methyl-3-((3-(trifluoromethyl)pyridin-2-yl)amino)phenyl)-N-ethyl-N-methylformimidamide] | ≥ 70% | – | ≥ 70% |
| CCN(C)C=Nc1cc(C)cc(Nc2cc(Cl)cc(C(F)(F)F)c2)c1Cl [Compound 137, N′-(2-chloro-3-((3-chloro-5-(trifluoromethyl)phenyl)amino)-5-methylphenyl)-N-ethyl-N-methylformimidamide] | ≥ 70% | ≥ 70% | – |
| CCN(C)C=Nc1cc(C#N)cc(Cc2cccc(C#N)c2)c1C [Compound 309, N′-(5-cyano-3-(3-cyanobenzyl)-2-methylphenyl)-N-ethyl-N-methylformimidamide] | ≥ 70% | – | – |
